The values below come from US8871760B2, “[1,2,4]triazolo[3,4-C][1,4]oxazines as P2X7 modulators” (Roche Palo Alto LLC, priority 2009, dated 2014).

The assay has as its target T1, human P2X7 (UniProt Q99572).
T1 sequence (Q99572 1-595): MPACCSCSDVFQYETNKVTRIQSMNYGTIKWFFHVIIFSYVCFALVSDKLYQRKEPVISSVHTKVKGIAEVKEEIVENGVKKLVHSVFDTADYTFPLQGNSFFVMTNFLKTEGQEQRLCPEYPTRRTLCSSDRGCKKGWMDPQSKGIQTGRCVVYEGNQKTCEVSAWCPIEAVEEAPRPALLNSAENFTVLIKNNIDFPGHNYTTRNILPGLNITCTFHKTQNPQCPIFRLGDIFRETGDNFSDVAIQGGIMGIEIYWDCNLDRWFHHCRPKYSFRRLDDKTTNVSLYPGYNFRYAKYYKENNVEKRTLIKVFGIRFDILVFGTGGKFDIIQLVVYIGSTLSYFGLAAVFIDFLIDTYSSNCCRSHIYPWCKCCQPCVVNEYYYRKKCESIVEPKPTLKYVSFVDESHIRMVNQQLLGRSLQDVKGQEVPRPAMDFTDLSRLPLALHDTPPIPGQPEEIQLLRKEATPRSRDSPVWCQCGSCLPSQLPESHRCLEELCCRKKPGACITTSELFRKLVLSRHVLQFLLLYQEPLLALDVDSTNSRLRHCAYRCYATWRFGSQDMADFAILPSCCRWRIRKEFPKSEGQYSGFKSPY
In words: Intracellular Calcium Flux (FLIPR) Assay. The class given is cell-based. How it is done: Intracellular Calcium Flux (FLIPR) Assay
Compound and Reagent Preparation
Stock solutions of compounds were prepared from powders as a 10 mM DMSO stock solution. These solutions were stored at RT during the two week period of these experiments to prevent freeze-thaw of the DMSO stocks. The DMSO stocks were added to the appropriate assay buffer at a concentration of 10 μM, and then diluted serially to the final concentrations that were tested. No observable precipitate was formed at any time during this process. The aqueous solutions of compounds as well as ATP (Sigma A7699) and BzATP (Sigma B6396) were prepared fresh for each day of experiment.
1321N1 cells stably expressing the full length human P2X7 gene (1321N1-hP2X7) and HEK293 cells stably expressing the full length rat P2X7 gene (HEK293-rP2X7) were obtained from the Roche Cell Culture Facility. 1321N1-hP2X7 cells were grown in Dulbecco's Modified Eagle's Medium (DMEM) high glucose supplemented with 10% FBS and […] G418. HEK293-rP2X7 cells were grown in DMEM/F-12 supplemented with 10% FBS, 1 mM CaCl2, 2 mM MgCl2, 2 mM L-Glutamine and […] G418. Cells were split such that they never became >70% confluent.
Intracellular Calcium Flux (FLIPR)
On the day prior to the experiment, 1321N1-hP2X7 or HEK293-rP2X7 cells were released into suspension with calcium-free PBS+Versene and washed by centrifugation with calcium-free PBS to remove the Versene. Cells were resuspended in growth medium at a density of 2.5×10^5 cells/mL and seeded into black walled, clear bottom 96 well plates (50,000 cells/well) approximately 18 hr prior to intracellular calcium flux experiments.
On the day of the experiment, plates were washed with FLIPR buffer (calcium- and magnesium-free Hank's Balanced Salt Solution (HBSS) supplemented with 10 mM Hepes, 2.5 mM probenecid and 2 mM calcium chloride) using a BIO-TEK 96 channel plate washer and incubated with […] fluo-3 dye at 37° C. for one hr. The dye was then removed by plate washing and the cells were allowed to equilibrate for 20 min at room temperature with antagonist or vehicle (FLIPR buffer). Agonist (100 μM BzATP final concentration for hP2X7; 5 μM BzATP final concentration or rP2X7) was added online with the FLIPR and fluorescence measurements made at 1 sec intervals for 60 sec followed by 3 sec intervals for a further 4 min (5 min total). A final addition of 5 μM ionomycin was made and the maximal BzATP-evoked fluorescence normalized to the maximal ionomycin-evoked fluorescence.
For orientation: Calcium assays in cells follow changes in intracellular calcium, usually with a dye or a luminescent sensor.
What is called pIC50 is −log10 of the IC50, conventionally taken in molar units. Turning to `COc1cc(Br)c(Nc2nnc3n2[C@H](c2ccc(F)cc2)COC3)cc1OC` [Compound 13, (2-Bromo-4,5-dimethoxy-phenyl)-[(R)-5-(4-fluoro-phenyl)-5,6-dihydro-8H-[1,2,4]triazolo[3,4-c][1,4]oxazin-3-yl]-amine], the negative-log IC50 (pIC50) amounted to 7.75.

On to `COc1cc(Br)c(Nc2nnc3n2C(c2ccc(F)cc2)C[S+]([O-])C3)cc1OC` (stereo not shown) [Compound 16, (2-Bromo-4,5-dimethoxy-phenyl)-[5-(4-fluoro-phenyl)-7-oxo-5,6,7,8-tetrahydro-7λ^4-[1,2,4]triazolo[3,4-c][1,4]thiazin-3-yl]-amine], for which the pIC50 came out at 7.4167.

As to `COc1cc(Br)c(Nc2nnc3n2C(c2ccc(F)cc2)CN(C(C)=O)C3)cc1OC` (stereo not shown) [Compound 24, 1-[3-(2-Bromo-4,5-dimethoxy-phenylamino)-5-(4-fluoro-phenyl)-5,6-dihydro-8H-[1,2,4]triazolo[4,3-a]pyrazin-7-yl]-ethanone], the negative-log IC50 (pIC50) is listed as 6.945.

Regarding `Cc1cc(Cl)c(-n2ncccc2=O)cc1Nc1nnc2n1[C@H](c1ccc(F)cc1)COC2` [Compound 50, 2-{2-Chloro-5-[(R)-5-(4-fluoro-phenyl)-5,6-dihydro-8H-[1,2,4]triazolo[3,4-c][1,4]oxazin-3-ylamino]-4-methyl-phenyl}-2H-pyridazin-3-one], the pIC50 stood at 7.17.

Take `Cc1ccc2c(Nc3nnc4n3[C@H](c3ccc(F)cc3)COC4)cccc2n1` [Compound 27, [(R)-5-(4-Fluoro-phenyl)-5,6-dihydro-8H-[1,2,4]triazolo[3,4-c][1,4]oxazin-3-yl]-(2-methyl-quinolin-5-yl)-amine]: the negative-log IC50 (pIC50) was 6.76.

Consider `Cc1ccc(-c2ccnn(CCO)c2=O)cc1Nc1nnc2n1[C@H](c1ccc(F)cc1)COC2` [Compound 52, 4-{3-[(R)-5-(4-Fluoro-phenyl)-5,6-dihydro-8H-[1,2,4]triazolo[3,4-c][1,4]oxazin-3-ylamino]-4-methyl-phenyl}-2-(2-hydroxy-ethyl)-2H-pyridazin-3-one], for which the negative-log IC50 (pIC50) is 8.09.

For the compound `Cc1cc(-c2ccc(Cl)c(Nc3nnc4n3[C@H](c3ccc(F)cc3)COC4)c2)nn1CCO` [Compound 40, 2-(3-{4-Chloro-3-[(R)-5-(4-fluoro-phenyl)-5,6-dihydro-8H-[1,2,4]triazolo[3,4-c][1,4]oxazin-3-ylamino]-phenyl}-5-methyl-pyrazol-1-yl)-ethanol], the negative logarithm of the IC50 (pIC50) stood at 7.54.

In the case of `Cc1ccc2ncccc2c1Nc1nnc2n1[C@H](c1ccccc1)COC2` [Compound 11, (6-Methyl-quinolin-5-yl)-((R)-5-phenyl-5,6-dihydro-8H-[1,2,4]triazolo[3,4-c][1,4]oxazin-3-yl)-amine], the pIC50 was found to be 7.442.

On to `COc1cc(Br)c(Nc2nnc3n2C(c2ccc(F)cc2)COC3)cc1OC` (stereo not shown) [Compound 5, (2-Bromo-4,5-dimethoxy-phenyl)-[5-(4-fluoro-phenyl)-5,6-dihydro-8H-[1,2,4]triazolo[3,4-c][1,4]oxazin-3-yl]-amine], for which the pIC50 stood at 7.775.

For the compound `Cn1nccc(-c2ccc(F)c(Nc3nnc4n3[C@H](c3ccc(F)cc3)COC4)c2)c1=O` [Compound 55, 4-{4-Fluoro-3-[(R)-5-(4-fluoro-phenyl)-5,6-dihydro-8H-[1,2,4]triazolo[3,4-c][1,4]oxazin-3-ylamino]-phenyl}-2-methyl-2H-pyridazin-3-one], the negative-log IC50 (pIC50) was found to be 8.035.

With `Cc1ccc(-c2cc(C)n(C[C@H](O)CO)n2)cc1Nc1nnc2n1[C@H](c1ccc(F)cc1)COC2` [Compound 35, (S)-3-(3-{3-[(R)-5-(4-Fluoro-phenyl)-5,6-dihydro-8H-[1,2,4]triazolo[3,4-c][1,4]oxazin-3-ylamino]-4-methyl-phenyl}-5-methyl-pyrazol-1-yl)-propane-1,2-diol], the pIC50 worked out at 7.755.

Turning to `Cc1ccc2ncccc2c1Nc1nnc2n1C(c1cccc(F)c1)COC2` (stereo not shown) [Compound 25, [5-(3-Fluoro-phenyl)-5,6-dihydro-8H-[1,2,4]triazolo[3,4-c][1,4]oxazin-3-yl]-(6-methyl-quinolin-5-yl)-amine], the negative logarithm of the IC50 (pIC50) is 7.735.

With `COC[C@H](O)Cn1nc(-c2ccc(C)c(Nc3nnc4n3[C@H](c3ccc(F)cc3)COC4)c2)cc1C` [Compound 33, (R)-1-(3-{3-[(R)-5-(4-Fluoro-phenyl)-5,6-dihydro-8H-[1,2,4]triazolo[3,4-c][1,4]oxazin-3-ylamino]-4-methyl-phenyl}-5-methyl-pyrazol-1-yl)-3-methoxy-propan-2-ol], the pIC50 is recorded as 7.56.

`CCc1c(Nc2nnc3n2C(c2ccc(F)cc2)CCC3)ccc2ncccc12` (stereo not shown) [Compound 2, (5-Ethyl-quinolin-6-yl)-[5-(4-fluoro-phenyl)-5,6,7,8-tetrahydro-[1,2,4]triazolo[4,3-a]pyridin-3-yl]-amine]: the negative logarithm of the IC50 (pIC50) came to 7.52.

With `Cc1ccc(-c2cc(C)n(C[C@H](C)O)n2)cc1Nc1nnc2n1[C@H](c1ccc(F)cc1)COC2` [Compound 34, (S)-1-(3-{3-[(R)-5-(4-Fluoro-phenyl)-5,6-dihydro-8H-[1,2,4]triazolo[3,4-c][1,4]oxazin-3-ylamino]-4-methyl-phenyl}-5-methyl-pyrazol-1-yl)-propan-2-ol], the negative logarithm of the IC50 (pIC50) worked out at 7.4.

In the case of `COc1cc(Br)c(Nc2nnc3n2C(c2ccc(F)cc2)CN(C)C3)cc1OC` (stereo not shown) [Compound 26, (2-Bromo-4,5-dimethoxy-phenyl)-[5-(4-fluoro-phenyl)-7-methyl-5,6,7,8-tetrahydro-[1,2,4]triazolo[4,3-a]pyrazin-3-yl]-amine], the pIC50 was 7.32.

Regarding `Cc1ccc2ncccc2c1Nc1nnc2n1[C@H](c1ccc(F)cc1)COC2` [Compound 36, [(R)-5-(4-Fluoro-phenyl)-5,6-dihydro-8H-[1,2,4]triazolo[3,4-c][1,4]oxazin-3-yl]-(6-methyl-quinolin-5-yl)-amine], the pIC50 was 7.87.

Take `COc1cc(Br)c(Nc2nnc3n2C(c2ccc(F)cc2)CNC3)cc1OC` (stereo not shown) [Compound 17, (2-Bromo-4,5-dimethoxy-phenyl)-[5-(4-fluoro-phenyl)-5,6,7,8-tetrahydro-[1,2,4]triazolo[4,3-a]pyrazin-3-yl]-amine]: the pIC50 is reported as 7.3267.

For the compound `Cc1ccc(-c2ccn[nH]c2=O)cc1Nc1nnc2n1[C@H](c1ccc(F)cc1)COC2` [Compound 43, 4-{3-[(R)-5-(4-Fluoro-phenyl)-5,6-dihydro-8H-[1,2,4]triazolo[3,4-c][1,4]oxazin-3-ylamino]-4-methyl-phenyl}-2H-pyridazin-3-one], the pIC50 turned out to be 8.28.

Turning to `COc1cc(Br)c(Nc2nnc3n2C(c2ccccc2)CC2(C3)OCCO2)cc1OC` (stereo not shown) [Compound 7, (2-Bromo-4,5-dimethoxy-phenyl)-(7,7′-spiro-ethylenedioxy-5-phenyl-5,6,7,8-tetrahydro-[1,2,4]triazolo[4,3-a]pyridin-3-yl)-amine], the pIC50 is reported as 6.2.

As to `O=C1NCCCN1c1ccc(Br)c(Nc2nnc3n2[C@H](c2ccc(F)cc2)COC3)c1` [Compound 54, 1-{4-Bromo-3-[(R)-5-(4-fluoro-phenyl)-5,6-dihydro-8H-[1,2,4]triazolo-[3,4-c][1,4]oxazin-3-ylamino]-phenyl}-tetrahydro-pyrimidin-2-one], the pIC50 is given as 7.325.

Regarding `Fc1cccc(C2COCc3nnc(Nc4cccc5ncccc45)n32)c1` (stereo not shown) [Compound 20, [5-(3-Fluoro-phenyl)-5,6-dihydro-8H-[1,2,4]triazolo[3,4-c][1,4]oxazin-3-yl]-quinolin-5-yl-amine], the pIC50 amounted to 6.987.
